In ChEMBL document CHEMBL1201862, “PubChem BioAssay data set” (2004):
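Interpolation was linear, between the two tested concentrations surrounding the appropriate level; five concentrations were tested over 48 hours in 96-well plates. Here, GI50 denotes the concentration required for 50% inhibition of growth.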 Active and inactive are the calls of the source. Rule as the data show it: active = GI50 up to about 1.1 µM and inactive = higher.

Assays:
Assay in all cases: DTP human tumour cell line panel, 48 h
DMS-114 = tested on: DMS-114
DMS-273 = tested on: DMS-273
DLD-1 = tested on: DLD-1
XF498 = tested on: XF498
SNB-78 = tested on: SNB-78
HOP-18 = tested on: HOP-18
M19-MEL = tested on: M19-MEL
BT-549 = tested on: BT-549
RXF 631 = tested on: RXF 631

| Structure (SMILES) | GI50 (DLD-1) | GI50 (SNB-78) | GI50 (M19-MEL) | GI50 (BT-549) | further results |
| --- | --- | --- | --- | --- | --- |
| CC(=O)OCC1=C(CCC#N)N2C(=O)C(NC(=O)Cc3cccs3)C2[S+]([O-])C1 (configuration not stated) | > 100 µM (inactive) | > 100 µM (inactive) | > 100 µM (inactive) |  | GI50 (DMS-114): > 100 µM (inactive); GI50 (DMS-273): > 100 µM (inactive); GI50 (XF498): > 100 µM (inactive); GI50 (HOP-18): > 100 µM (inactive) |
| O=C1CC2OCC=C3CN4CCC5(C(=O)O)C(N1)C2C3CC45 (configuration not stated) |  |  |  | > 100 µM (inactive) |  |
| CC1(C(=O)O)CCOc2ccccc21 (configuration not stated) | > 100 µM (inactive) | > 100 µM (inactive) | > 100 µM (inactive) |  | GI50 (DMS-114): > 100 µM (inactive); GI50 (HOP-18): > 100 µM (inactive) |
| CC(=O)Nc1ccc2c3c(cc(O)c2c1)N(C(=O)CCCCCC(=O)N1CC(CCl)c2c1cc(O)c1cc(NC(C)=O)ccc21)CC3CCl (configuration not stated) |  |  |  | 0.0134 µM (active) |  |
| O=C(O)c1cscc1Cc1cccs1 |  |  |  | > 100 µM (inactive) |  |
| CCCCCCCCCCCCOCCCCCCCCC/C=C/c1ccc2c(c1)OCCOCCOCCOCCO2 |  |  |  | 23.4 µM (inactive) |  |
| CC1CC2OC(=O)C3CC(O)CC(=C23)[C@@]12C[C@@H](c1ccoc1)OC2=O (some centres not stated) | > 100 µM (inactive) | > 100 µM (inactive) | > 100 µM (inactive) |  | GI50 (DMS-273): > 100 µM (inactive); GI50 (XF498): > 100 µM (inactive); GI50 (HOP-18): > 100 µM (inactive) |
| CCOC(=O)Oc1ccc2c(c1)c(=O)c1c(NCCN(CC)CC)ccc3nnn2c31 |  |  |  | 10.5 µM (inactive) |  |
| COc1ccc(-c2nc(O)c3ccccc3n2)cc1 |  |  |  | 83.9 µM (inactive) |  |
| COc1ccc(NC(=O)C2C(=O)N(c3ccc(OC)cc3)C(=O)/C2=N\N)cc1 (configuration not stated) | > 100 µM (inactive) | > 100 µM (inactive) | > 100 µM (inactive) |  | GI50 (DMS-114): > 100 µM (inactive); GI50 (RXF 631): > 100 µM (inactive); GI50 (HOP-18): > 100 µM (inactive) |
| O=C1OC[C@H]2[C@@H]1[C@H]1O[C@@H]2C2=C(CCC2)C1=O |  |  |  | > 100 µM (inactive) |  |
| Ic1cc2c(cc1C1SCCCS1)OCO2 | > 100 µM (inactive) | > 100 µM (inactive) | > 100 µM (inactive) |  | GI50 (DMS-114): > 100 µM (inactive); GI50 (DMS-273): > 100 µM (inactive); GI50 (RXF 631): > 100 µM (inactive); GI50 (HOP-18): > 100 µM (inactive) |
| CC(C)N(C(=O)C12C3C4C5(C#N)C3C1(C#N)C5C42C#N)C(C)C (configuration not stated) | > 100 µM (inactive) | > 100 µM (inactive) | > 100 µM (inactive) |  | GI50 (DMS-114): > 100 µM (inactive); GI50 (DMS-273): > 100 µM (inactive); GI50 (XF498): > 100 µM (inactive); GI50 (HOP-18): > 100 µM (inactive) |
| COC(=O)/C([Se]c1c(C)cc(C)cc1C)=C(/[Se]c1c(C)cc(C)cc1C)C(=O)OC | > 100 µM (inactive) | > 100 µM (inactive) | > 100 µM (inactive) |  | GI50 (DMS-114): > 99.3 µM (inactive); GI50 (DMS-273): > 100 µM (inactive); GI50 (RXF 631): > 100 µM (inactive); GI50 (HOP-18): > 100 µM (inactive) |
| CC1OC(OC2C(O[C@H]3CC[C@@]4(C)C(=CC[C@H]5[C@@H]6C[C@@H]7O[C@]8(CC[C@@H](CO)CO8)[C@@H](C)[C@@H]7[C@@]6(C)CC[C@@H]54)C3)OC(CO)C(O)C2OC2OC(CO)C(O)C(O)C2O)C(O)C(O)C1O (some centres not stated) |  |  |  | > 10 µM (inactive) |  |
| C=CCCC12CCCC(=O)C1Sc1ccc3ccccc3c12 (configuration not stated) | 22.4 µM (inactive) | 20.8 µM (inactive) | 24.1 µM (inactive) |  | GI50 (DMS-273): 5.38 µM (inactive); GI50 (RXF 631): 11.6 µM (inactive); GI50 (HOP-18): 19.7 µM (inactive) |
| CCN1C[C@]2(C)CC[C@H](OC)C34C5C[C@@H]6[C@@H](OC)C[C@@](OC)(C5[C@H]6OCc5ccccc5)C(C13)[C@H](OC(C)=O)[C@@H]42 (some centres not stated) |  |  |  | > 100 µM (inactive) |  |

| Structure (SMILES) | GI50 (DLD-1) | GI50 (SNB-78) | GI50 (M19-MEL) | GI50 (BT-549) | further results |
| --- | --- | --- | --- | --- | --- |
| Cn1ncc(NCCn2cnc3c2c(=O)n(C)c(=O)n3C)c(Cl)c1=O |  |  |  | > 100 µM (inactive) |  |
| Cc1c(Cl)cccc1NC(=O)CC1C(=O)Nc2ccccc2S1(=O)=O (configuration not stated) | 15.1 µM (inactive) | 20.2 µM (inactive) | 20.4 µM (inactive) |  | GI50 (DMS-114): 16.5 µM (inactive); GI50 (DMS-273): 7.69 µM (inactive); GI50 (XF498): 15.2 µM (inactive) |
| CC1=C(CCC(C)CO)O[C@H]2C[C@H]3[C@@H]4CC[C@H]5C[C@@H](O)CC[C@]5(C)[C@H]4CC(=O)[C@]3(C)[C@@H]12 (some centres not stated) |  |  |  | 16 µM (inactive) |  |
| COc1ccc(Nc2nc3ccc(C(F)(F)F)cc3nc2C(=O)O)cc1OC |  |  |  | 22.5 µM (inactive) |  |
| Nc1nc(SCC(=O)O)nc(O)c1N |  |  |  | > 100 µM (inactive) |  |
| Fc1ccc(Nc2nc(Cl)c3nc[nH]c3n2)cc1Cl |  |  |  | > 100 µM (inactive) |  |
| CCOC(=O)C1(Cc2ccc3c(c2)CCC3)Cc2cc3c(cc2C1)CCC3 |  |  |  | 90.4 µM (inactive) |  |
| CC1CN=C(Nc2ccccc2)S1 (configuration not stated) |  |  |  | > 100 µM (inactive) |  |
| N/C(=N\Nc1cccc(Cl)c1)c1cccnc1 |  |  |  | > 69 µM (inactive) |  |
| Cc1ccc(SCN2CCCCC2)cc1.O=C(Cl)c1ccc([N+](=O)[O-])cc1 |  |  |  | 1.9 µM (inactive) |  |
| COc1ccc(Cc2nc3cc(Cl)ccc3o2)cc1 |  |  |  | 19.4 µM (inactive) |  |
| CO[C@@H]1C[C@H](OC(N)=O)[C@@H]2C=C[C@@H]3/C=C(C)/C=C/[C@@H](C)[C@H](/C(C)=C/[C@@H](C)NC(C)=O)OC(=O)/C=C/C=C(C)\C=C\[C@]3(C)[C@@H]2C1 [SUPERSTOLIDE B] |  |  |  | 0.224 µM (active) |  |
| C[P+]1(c2ccccc2)CCCCC1 | > 100 µM (inactive) | > 100 µM (inactive) | > 100 µM (inactive) |  | GI50 (DMS-114): > 100 µM (inactive); GI50 (DMS-273): > 100 µM (inactive); GI50 (RXF 631): > 100 µM (inactive); GI50 (HOP-18): 0.0484 µM (active) |
| O=C1/C(=C/c2n[nH]cc2-c2ccc(Cl)cc2)C(=O)N(c2ccccc2)C1c1ccccc1 (configuration not stated) |  |  |  | 14.6 µM (inactive) |  |
| COC(=O)C(=O)C(C(=O)C(=O)Nc1ccc(C)c(C)c1)c1nc2ccc([N+](=O)[O-])cc2nc1O (configuration not stated) |  |  |  | > 100 µM (inactive) |  |
| NC12c3c4cccc3Oc3cccc(c31)Oc1cccc(c12)O4 |  |  |  | > 50 µM (inactive) |  |
